Results as given in ChEMBL document CHEMBL5291721, “A preclinical secondary pharmacology resource illuminates target-adverse drug reaction associations of marketed drugs” (Nat Commun, 2023).

Legend:
Glucagon receptor = Glucagon receptor (Homo sapiens, UniProt P47871)
[1] = molecular target: T1, 5-hydroxytryptamine receptor 1A (Homo sapiens, UniProt P08908)
T1 sequence (P08908 whole entry): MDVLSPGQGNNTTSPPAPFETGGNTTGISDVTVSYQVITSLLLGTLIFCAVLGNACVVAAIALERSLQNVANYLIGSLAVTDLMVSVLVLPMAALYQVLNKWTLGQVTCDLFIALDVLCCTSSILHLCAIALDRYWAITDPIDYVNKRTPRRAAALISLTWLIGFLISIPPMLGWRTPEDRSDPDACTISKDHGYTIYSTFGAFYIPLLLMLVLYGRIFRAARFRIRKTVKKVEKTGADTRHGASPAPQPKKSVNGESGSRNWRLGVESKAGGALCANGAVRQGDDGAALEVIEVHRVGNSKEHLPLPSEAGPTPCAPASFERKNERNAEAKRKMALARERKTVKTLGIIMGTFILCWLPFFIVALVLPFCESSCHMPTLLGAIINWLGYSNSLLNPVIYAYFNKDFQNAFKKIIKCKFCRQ

[2] = molecular target: T2, Muscarinic acetylcholine receptor M2 (Homo sapiens, UniProt P08172)
T2 sequence (P08172 whole entry): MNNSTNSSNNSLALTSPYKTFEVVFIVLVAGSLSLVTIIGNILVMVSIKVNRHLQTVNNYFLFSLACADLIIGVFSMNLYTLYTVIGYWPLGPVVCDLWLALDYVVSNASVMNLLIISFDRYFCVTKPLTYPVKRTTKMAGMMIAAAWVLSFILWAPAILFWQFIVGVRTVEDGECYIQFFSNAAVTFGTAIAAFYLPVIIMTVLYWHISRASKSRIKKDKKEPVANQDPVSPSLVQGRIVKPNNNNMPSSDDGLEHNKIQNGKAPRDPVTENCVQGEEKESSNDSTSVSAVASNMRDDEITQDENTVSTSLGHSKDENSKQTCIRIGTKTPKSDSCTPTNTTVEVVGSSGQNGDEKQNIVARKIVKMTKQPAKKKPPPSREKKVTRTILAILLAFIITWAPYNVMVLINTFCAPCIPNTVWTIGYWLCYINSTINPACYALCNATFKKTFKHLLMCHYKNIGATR

D(1A) dopamine receptor = D(1A) dopamine receptor (Homo sapiens, UniProt P21728)
D(1A) dopamine receptor, sequence (P21728 whole entry): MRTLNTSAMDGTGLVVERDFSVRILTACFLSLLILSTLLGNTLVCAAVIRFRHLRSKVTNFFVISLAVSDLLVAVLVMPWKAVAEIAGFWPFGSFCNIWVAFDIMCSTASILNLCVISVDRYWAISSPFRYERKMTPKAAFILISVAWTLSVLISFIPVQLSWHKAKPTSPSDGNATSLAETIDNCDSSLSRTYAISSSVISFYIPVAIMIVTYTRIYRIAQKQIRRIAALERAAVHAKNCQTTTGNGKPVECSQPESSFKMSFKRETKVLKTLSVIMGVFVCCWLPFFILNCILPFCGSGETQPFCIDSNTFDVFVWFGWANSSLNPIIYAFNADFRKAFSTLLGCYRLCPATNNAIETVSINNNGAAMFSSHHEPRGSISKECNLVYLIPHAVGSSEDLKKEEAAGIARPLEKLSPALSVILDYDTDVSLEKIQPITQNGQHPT

[3] = molecular target: Gamma-aminobutyric acid receptor subunit alpha-1/alpha-2/beta-2/gamma-2 (Homo sapiens, UniProt P14867+P18507+P47869+P47870); type: functional, cell-based
Gamma-aminobutyric acid receptor subunit alpha-1/alpha-2/beta-2/gamma-2, sequence (P14867 whole entry): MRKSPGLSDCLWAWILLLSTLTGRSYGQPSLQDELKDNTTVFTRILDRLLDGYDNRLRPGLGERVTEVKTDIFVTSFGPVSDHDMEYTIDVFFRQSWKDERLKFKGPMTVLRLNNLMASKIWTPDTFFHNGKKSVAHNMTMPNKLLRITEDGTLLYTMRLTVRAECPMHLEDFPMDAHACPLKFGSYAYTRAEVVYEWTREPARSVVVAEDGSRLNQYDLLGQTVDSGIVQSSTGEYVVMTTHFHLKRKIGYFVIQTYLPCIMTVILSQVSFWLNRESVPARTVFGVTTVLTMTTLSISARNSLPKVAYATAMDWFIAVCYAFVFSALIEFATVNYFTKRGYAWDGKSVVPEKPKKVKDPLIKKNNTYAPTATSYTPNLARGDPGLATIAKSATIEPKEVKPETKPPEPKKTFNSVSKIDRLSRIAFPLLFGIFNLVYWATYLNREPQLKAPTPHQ
Gamma-aminobutyric acid receptor subunit alpha-1/alpha-2/beta-2/gamma-2, sequence (P47870 whole entry): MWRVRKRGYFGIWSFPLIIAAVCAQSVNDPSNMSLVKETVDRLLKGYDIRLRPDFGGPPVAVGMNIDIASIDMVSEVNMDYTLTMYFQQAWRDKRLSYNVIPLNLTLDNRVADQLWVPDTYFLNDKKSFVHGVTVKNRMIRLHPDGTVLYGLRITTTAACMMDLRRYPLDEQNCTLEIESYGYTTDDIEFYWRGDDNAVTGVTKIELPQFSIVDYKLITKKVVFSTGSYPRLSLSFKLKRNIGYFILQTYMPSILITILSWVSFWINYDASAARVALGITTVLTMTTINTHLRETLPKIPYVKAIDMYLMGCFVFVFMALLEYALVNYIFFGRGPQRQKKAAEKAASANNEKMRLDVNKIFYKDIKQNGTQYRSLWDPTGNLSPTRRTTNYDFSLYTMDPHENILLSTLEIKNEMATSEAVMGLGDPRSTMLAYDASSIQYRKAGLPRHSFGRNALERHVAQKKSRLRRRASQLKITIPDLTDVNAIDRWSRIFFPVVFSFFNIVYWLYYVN
Gamma-aminobutyric acid receptor subunit alpha-1/alpha-2/beta-2/gamma-2, sequence (P18507 whole entry): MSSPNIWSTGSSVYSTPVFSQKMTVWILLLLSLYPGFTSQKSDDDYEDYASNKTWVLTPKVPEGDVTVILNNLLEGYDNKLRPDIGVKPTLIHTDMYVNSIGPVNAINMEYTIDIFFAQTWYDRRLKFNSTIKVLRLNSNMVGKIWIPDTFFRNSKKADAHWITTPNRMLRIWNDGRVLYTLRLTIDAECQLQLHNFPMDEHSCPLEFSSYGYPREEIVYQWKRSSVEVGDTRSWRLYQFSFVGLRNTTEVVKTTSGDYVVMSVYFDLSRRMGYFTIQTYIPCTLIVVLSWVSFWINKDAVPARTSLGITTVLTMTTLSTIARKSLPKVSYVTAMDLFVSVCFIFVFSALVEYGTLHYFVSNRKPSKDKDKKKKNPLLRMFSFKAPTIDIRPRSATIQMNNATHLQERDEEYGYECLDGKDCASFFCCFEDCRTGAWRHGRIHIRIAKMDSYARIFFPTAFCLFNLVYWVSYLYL
Gamma-aminobutyric acid receptor subunit alpha-1/alpha-2/beta-2/gamma-2, sequence (P47869 whole entry): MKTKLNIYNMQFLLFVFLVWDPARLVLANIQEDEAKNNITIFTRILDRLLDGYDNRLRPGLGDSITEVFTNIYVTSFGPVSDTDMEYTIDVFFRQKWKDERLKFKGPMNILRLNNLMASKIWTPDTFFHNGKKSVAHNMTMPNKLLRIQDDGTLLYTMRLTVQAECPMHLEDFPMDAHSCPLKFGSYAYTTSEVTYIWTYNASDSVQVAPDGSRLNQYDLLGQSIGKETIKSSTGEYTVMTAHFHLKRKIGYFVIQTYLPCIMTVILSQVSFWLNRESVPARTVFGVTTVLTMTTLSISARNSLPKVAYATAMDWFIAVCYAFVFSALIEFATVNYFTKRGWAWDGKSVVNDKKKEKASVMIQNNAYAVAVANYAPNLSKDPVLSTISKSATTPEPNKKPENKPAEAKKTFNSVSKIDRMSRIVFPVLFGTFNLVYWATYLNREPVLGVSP

Androgen receptor = molecular target: T3, Androgen receptor (Homo sapiens, UniProt P10275)
T3 sequence (P10275 whole entry): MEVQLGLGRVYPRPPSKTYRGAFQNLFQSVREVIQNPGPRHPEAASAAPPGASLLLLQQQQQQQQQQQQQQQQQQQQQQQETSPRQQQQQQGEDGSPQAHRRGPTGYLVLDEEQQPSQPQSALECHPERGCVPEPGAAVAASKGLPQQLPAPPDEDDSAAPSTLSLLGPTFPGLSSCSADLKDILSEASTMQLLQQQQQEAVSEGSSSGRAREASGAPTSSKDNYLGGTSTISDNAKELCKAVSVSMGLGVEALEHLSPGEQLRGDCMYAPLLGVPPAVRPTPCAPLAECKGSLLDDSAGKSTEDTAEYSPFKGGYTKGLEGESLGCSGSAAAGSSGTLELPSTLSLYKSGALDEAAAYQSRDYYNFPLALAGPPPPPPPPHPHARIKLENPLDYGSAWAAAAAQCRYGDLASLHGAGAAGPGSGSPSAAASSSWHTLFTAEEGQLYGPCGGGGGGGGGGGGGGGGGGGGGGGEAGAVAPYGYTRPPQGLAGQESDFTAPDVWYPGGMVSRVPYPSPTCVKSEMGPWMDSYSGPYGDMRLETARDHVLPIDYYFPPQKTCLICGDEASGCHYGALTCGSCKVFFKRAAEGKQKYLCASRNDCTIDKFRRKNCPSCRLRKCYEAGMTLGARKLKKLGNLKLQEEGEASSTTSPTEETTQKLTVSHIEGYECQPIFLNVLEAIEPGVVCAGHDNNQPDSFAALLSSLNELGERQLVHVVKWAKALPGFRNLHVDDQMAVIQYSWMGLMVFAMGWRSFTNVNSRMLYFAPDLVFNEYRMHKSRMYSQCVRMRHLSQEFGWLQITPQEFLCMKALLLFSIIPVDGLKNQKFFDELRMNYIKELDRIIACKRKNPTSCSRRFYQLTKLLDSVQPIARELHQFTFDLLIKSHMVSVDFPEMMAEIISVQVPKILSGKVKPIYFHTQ

Estrogen receptor = molecular target: T4, Estrogen receptor (Homo sapiens, UniProt P03372); type: functional
T4 sequence (P03372 whole entry): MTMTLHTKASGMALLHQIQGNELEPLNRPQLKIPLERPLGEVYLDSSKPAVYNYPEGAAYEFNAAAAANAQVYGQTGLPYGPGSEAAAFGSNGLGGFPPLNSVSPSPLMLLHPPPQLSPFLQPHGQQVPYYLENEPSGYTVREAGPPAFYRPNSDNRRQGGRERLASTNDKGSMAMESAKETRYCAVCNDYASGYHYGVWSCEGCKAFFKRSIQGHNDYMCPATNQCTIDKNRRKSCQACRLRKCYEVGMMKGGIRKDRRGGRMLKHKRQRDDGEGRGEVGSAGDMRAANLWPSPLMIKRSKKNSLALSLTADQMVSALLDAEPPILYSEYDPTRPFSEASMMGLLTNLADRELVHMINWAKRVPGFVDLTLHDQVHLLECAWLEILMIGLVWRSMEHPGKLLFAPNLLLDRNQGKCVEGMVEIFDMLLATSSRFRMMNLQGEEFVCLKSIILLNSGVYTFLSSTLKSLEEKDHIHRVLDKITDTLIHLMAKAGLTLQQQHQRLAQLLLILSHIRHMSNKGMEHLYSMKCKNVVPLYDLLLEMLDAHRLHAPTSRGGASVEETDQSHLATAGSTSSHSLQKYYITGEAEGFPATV
Note: assay procedure not described here.

Glucagon receptor, sequence (P47871 whole entry): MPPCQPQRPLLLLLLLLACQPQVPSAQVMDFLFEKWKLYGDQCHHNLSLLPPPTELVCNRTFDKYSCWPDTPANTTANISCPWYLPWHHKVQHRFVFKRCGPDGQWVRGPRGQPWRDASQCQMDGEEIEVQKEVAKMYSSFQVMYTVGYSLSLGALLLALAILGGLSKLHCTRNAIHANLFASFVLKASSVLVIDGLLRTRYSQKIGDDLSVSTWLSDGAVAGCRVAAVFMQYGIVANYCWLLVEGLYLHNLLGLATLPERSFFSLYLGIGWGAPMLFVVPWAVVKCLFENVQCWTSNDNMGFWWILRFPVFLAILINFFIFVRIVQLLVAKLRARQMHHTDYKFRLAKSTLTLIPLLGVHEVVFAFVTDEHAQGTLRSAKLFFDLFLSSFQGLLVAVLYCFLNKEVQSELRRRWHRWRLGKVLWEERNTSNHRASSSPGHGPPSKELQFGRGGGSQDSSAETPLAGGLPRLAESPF

SMILES | AC50 (Glucagon receptor) | AC50 [1] | AC50 [2] | AC50 (D(1A) dopamine receptor) | AC50 (Androgen receptor) | other results
CCOC(=O)[C@H](CCc1ccccc1)N[C@@H](C)C(=O)N1[C@H](C(=O)O)C[C@@H]2CCC[C@@H]21 | > 30 µM | > 10 µM | > 10 µM | > 10 µM | – | –
Nc1nc(NC2CC2)c2ncn([C@H]3C=C[C@@H](CO)C3)c2n1 [ABACAVIR] | – | – | – | – | – | AC50 [3]: > 30 µM
CC(=O)Nc1ccc(O)cc1 [ACETAMINOPHEN] | – | – | – | – | > 30 µM | AC50 [3]: > 30 µM
C=CCc1ccccc1OCC(O)CNC(C)C (configuration not stated) [ALPRENOLOL] | – | – | – | – | > 0.3 µM | –
CNC(=O)c1ccccc1Sc1ccc2c(/C=C/c3ccccn3)n[nH]c2c1 [AXITINIB] | – | – | – | – | – | AC50 [3]: > 30 µM
CC[C@H]1OC(=O)[C@H](C)[C@@H](O[C@H]2C[C@@](C)(OC)[C@@H](O)[C@H](C)O2)[C@H](C)[C@@H](O[C@@H]2O[C@H](C)C[C@H](N(C)C)[C@H]2O)[C@](C)(O)C[C@@H](C)CN(C)[C@H](C)[C@@H](O)[C@]1(C)O [AZITHROMYCIN] | > 30 µM | > 10 µM | > 10 µM | > 10 µM | – | –
NCC(CC(=O)O)c1ccc(Cl)cc1 (configuration not stated) [BACLOFEN] | > 30 µM | > 10 µM | > 10 µM | > 10 µM | – | AC50 [3]: > 30 µM
CC(C)C[C@H]1C(=O)N2CCC[C@H]2[C@]2(O)O[C@](NC(=O)[C@@H]3C=C4c5cccc6[nH]c(Br)c(c56)C[C@H]4N(C)C3)(C(C)C)C(=O)N12 [BROMOCRIPTINE] | > 30 µM | 0.319 µM | > 10 µM | > 10 µM | – | AC50 [3]: > 30 µM
CN(C)CCn1nnnc1SCC1=C(C(=O)O)N2C(=O)[C@@H](NC(=O)Cc3csc(N)n3)[C@H]2SC1 [CEFOTIAM] | – | – | – | – | > 30 µM | –
Cc1ccc(-c2cc(C(F)(F)F)nn2-c2ccc(S(N)(=O)=O)cc2)cc1 [CELECOXIB] | > 30 µM | > 10 µM | > 10 µM | > 10 µM | – | –
CC1=C(C(=O)O)N2C(=O)[C@@H](NC(=O)[C@H](N)c3ccccc3)[C@H]2SC1 [CEPHALEXIN ANHYDROUS] | > 30 µM | > 10 µM | – | – | – | –
COCc1c(C(C)C)nc(C(C)C)c(/C=C/[C@@H](O)C[C@@H](O)CC(=O)O)c1-c1ccc(F)cc1 [CERIVASTATIN] | – | – | – | – | > 30 µM | –
CN(C)CCC(c1ccc(Cl)cc1)c1ccccn1 (configuration not stated) [CHLORPHENIRAMINE] | > 30 µM | > 10 µM | 5.52 µM | > 10 µM | – | –
CN(C)[C@@H](c1cccc(O)c1)[C@H]1CCCC[C@H]1O [CIRAMADOL] | – | – | – | – | > 30 µM | –
CN(C)CC(c1ccc(O)cc1)C1(O)CCCCC1 (configuration not stated) [DESVENLAFAXINE] | – | – | – | – | > 30 µM | –
O=C(Cc1ccc(-c2ccccc2)cc1)Nc1ccccn1 [DIFENPIRAMIDE] | – | – | – | – | > 30 µM | AC50 [3]: > 30 µM
O=C1Nc2ccc(Cl)cc2[C@@](C#CC2CC2)(C(F)(F)F)O1 [EFAVIRENZ] | – | – | – | – | – | AC50 (Estrogen receptor): > 30 µM
Cc1cc(C#N)cc(C)c1Oc1nc(Nc2ccc(C#N)cc2)nc(N)c1Br [ETRAVIRINE] | – | – | – | – | > 30 µM | –
O=C(O)c1cc(O)ccc1O [GENTISIC ACID] | – | – | – | – | > 30 µM | –
CCC1=C(C)CN(C(=O)NCCc2ccc(S(=O)(=O)NC(=O)N[C@H]3CC[C@H](C)CC3)cc2)C1=O [GLIMEPIRIDE] | – | – | – | – | > 30 µM | –

SMILES | AC50 (Glucagon receptor) | AC50 [1] | AC50 [2] | AC50 (D(1A) dopamine receptor) | AC50 (Androgen receptor) | other results
C[C@]12CCC(=O)C=C1CC[C@@H]1[C@@H]2[C@@H](O)C[C@@]2(C)[C@H]1CC[C@]2(O)C(=O)CO [HYDROCORTISONE] | > 30 µM | > 10 µM | > 10 µM | > 10 µM | – | –
CC(C)Nc1ncccn1 [ISAXONINE] | – | – | – | – | > 30 µM | –
CCC(C)n1ncn(-c2ccc(N3CCN(c4ccc(OCC5COC(Cn6cncn6)(c6ccc(Cl)cc6Cl)O5)cc4)CC3)cc2)c1=O (configuration not stated) [ITRACONAZOLE] | > 30 µM | > 10 µM | > 10 µM | > 10 µM | – | –
CN1C(C(=O)Nc2ccccn2)=C(O)c2sc(Cl)cc2S1(=O)=O [LORNOXICAM] | – | > 10 µM | – | – | – | –
C[C@@H](O)[C@H]1C(=O)N2C(C(=O)O)=C(S[C@@H]3CN[C@H](C(=O)N(C)C)C3)[C@H](C)[C@H]12 [MEROPENEM] | – | – | – | – | – | AC50 [3]: > 300 µM
OCCN1C[C@H](O)[C@@H](O)[C@H](O)[C@H]1CO [MIGLITOL] | – | – | – | – | > 30 µM | –
CC[C@H]1[C@@H](O)[C@@H]2[C@H](CC[C@]3(C)[C@@H]([C@H](C)CCC(=O)O)CC[C@@H]23)[C@@]2(C)CC[C@@H](O)C[C@@H]12 [OBETICHOLIC ACID] | – | – | – | – | > 30 µM | –
CC[N+]1(C)[C@@H]2CC(OC(=O)[C@H](CO)c3ccccc3)C[C@H]1[C@@H]1O[C@@H]12 (some centres not stated) [OXITROPIUM] | – | – | – | – | > 30 µM | –
CN(C)S(=O)(=O)c1ccc2c(c1)N(CCCN1CCC(CCO)CC1)c1ccccc1S2 [PIPOTIAZINE] | – | – | – | – | > 30 µM | –
COCCCN1CCC(NC(=O)c2cc(Cl)c(N)c3c2OCC3)CC1 [PRUCALOPRIDE] | – | – | – | – | – | AC50 [3]: > 30 µM
CCC(=O)NCC[C@@H]1CCc2ccc3c(c21)CCO3 [RAMELTEON] | – | – | – | – | > 30 µM | –
CS(=O)(=O)c1ccc(C2=C(c3ccccc3)C(=O)OC2)cc1 [ROFECOXIB] | > 30 µM | > 10 µM | > 10 µM | > 10 µM | – | –
CO[C@H]1C[C@@H]2CC[C@@H](C)[C@@](O)(O2)C(=O)C(=O)N2CCCC[C@H]2C(=O)O[C@H]([C@H](C)C[C@@H]2CC[C@@H](O)[C@H](OC)C2)CC(=O)[C@H](C)/C=C(\C)[C@@H](O)[C@@H](OC)C(=O)[C@H](C)C[C@H](C)/C=C/C=C/C=C/1C [SIROLIMUS] | > 30 µM | > 10 µM | – | – | > 30 µM | –
Cc1cn([C@H]2C=C[C@@H](CO)O2)c(=O)[nH]c1=O [STAVUDINE] | > 30 µM | > 10 µM | > 10 µM | > 10 µM | – | –
Clc1ccc2nsnc2c1NC1=NCCN1 [TIZANIDINE] | > 30 µM | > 10 µM | > 10 µM | > 10 µM | – | –
CCOC(=O)[C@H](CCc1ccccc1)N[C@@H](C)C(=O)N1[C@H](C(=O)O)C[C@H]2CCCC[C@@H]21 [TRANDOLAPRIL] | – | – | – | – | > 30 µM | –
O=C(O[C@H]1C[C@H]2CC[C@@H](C1)[N+]21CCCC1)C(O)(c1ccccc1)c1ccccc1 [TROSPIUM] | – | – | 0.026 µM | – | – | –
CCCCCCOc1nsnc1C1=CCCN(C)C1 [XANOMELINE] | – | – | – | – | > 30 µM | –
Cc1cn([C@H]2C[C@H](N=[N+]=[N-])[C@@H](CO)O2)c(=O)[nH]c1=O [ZIDOVUDINE] | > 30 µM | > 10 µM | > 10 µM | > 10 µM | – | –
